Patent publication US9226916B2, “Pyrrolidine derivatives” (HOFFMANN-LA ROCHE INC., priority 2009, dated 2016)
pKi: −log10 of the molar value.

Each compound was assayed against T1, recombinant human NK3 receptor (Homo sapiens, UniProt P29371) (assay: [3H]SR142801 competition binding assay). Details: not given.
T1 construct: expressed in transfected cells; host or cells: HEK293 cells, transient expression; membranes
T1 sequence (P29371 1-465): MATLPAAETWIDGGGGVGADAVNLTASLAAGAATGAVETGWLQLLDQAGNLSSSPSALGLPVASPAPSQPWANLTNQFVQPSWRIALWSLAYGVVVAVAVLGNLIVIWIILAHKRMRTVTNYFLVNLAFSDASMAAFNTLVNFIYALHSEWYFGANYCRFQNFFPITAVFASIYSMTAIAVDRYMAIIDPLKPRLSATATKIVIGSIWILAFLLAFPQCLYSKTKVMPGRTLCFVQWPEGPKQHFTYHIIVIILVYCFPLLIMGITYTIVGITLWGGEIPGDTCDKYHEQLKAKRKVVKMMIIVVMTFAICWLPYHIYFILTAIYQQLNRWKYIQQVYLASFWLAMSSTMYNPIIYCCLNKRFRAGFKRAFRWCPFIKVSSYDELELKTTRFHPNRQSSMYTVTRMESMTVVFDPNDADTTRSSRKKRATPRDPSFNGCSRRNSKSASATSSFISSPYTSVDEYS
In the case of CN(C(=O)OCC1CCOC1)[C@H]1CN(C(=O)C2CCN(C(=O)C3(C)CC3)CC2)C[C@@H]1c1ccc(Cl)c(Cl)c1 (mixture of isomers) [Example 85, rac-{(3R,4S)-4-(3,4-Dichloro-phenyl)-1-[1-(1-methyl-cyclopropanecarbonyl)-piperidine-4-carbonyl]-pyrrolidin-3-yl}-methyl-carbamic acid (S)-1-(tetrahydro-furan-3-yl)methyl ester and rac-{(3R,4S)-4-(3,4-Dichloro-phenyl)-1-[1-(1-methyl-cyclopropanecarbonyl)-piperidine-4-carbonyl]-pyrrolidin-3-yl}-methyl-carbamic acid (R)-1-(tetrahydro-furan-3-yl)methyl ester], the pKi was 8.04.
In the case of CN(C(=O)OCCCC(F)(F)C(F)(F)F)[C@H]1CN(C(=O)C2CCN(C(=O)C3(C)CC3)CC2)C[C@@H]1c1ccc(Cl)c(Cl)c1 (racemic) [Example 88, rac-{(3R,4S)-4-(3,4-Dichloro-phenyl)-1-[1-(1-methyl-cyclopropanecarbonyl)-piperidine-4-carbonyl]-pyrrolidin-3-yl}-methyl-carbamic acid 4,4,5,5,5-pentafluoro-pentyl ester], the pKi was 8.08.
Work on CC1CC1COC(=O)N(C)[C@H]1CN(C(=O)C2CCN(C(=O)C3(C)CC3)CC2)C[C@@H]1c1ccc(Cl)c(Cl)c1 (mixture of isomers) [Example 92, rac-{(3R,4S)-4-(3,4-Dichloro-phenyl)-1-[1-(1-methyl-cyclopropanecarbonyl)-piperidine-4-carbonyl]-pyrrolidin-3-yl}-methyl-carbamic acid 2-methyl-cyclopropylmethyl ester] yielded a pKi of 8.64.
Work on CN(C(=O)OCc1ccc(F)cc1)[C@H]1CN(C(=O)C2CCN(C(=O)C3(C)CC3)CC2)C[C@@H]1c1ccc(Cl)c(Cl)c1 (racemic) [Example 95, rac-{(3R,4S)-4-(3,4-Dichloro-phenyl)-1-[1-(1-methyl-cyclopropanecarbonyl)-piperidine-4-carbonyl]-pyrrolidin-3-yl}-methyl-carbamic acid 4-fluoro-benzyl ester] yielded a pKi of 8.24.
CN(C(=O)OCCC(C)(C)O)[C@H]1CN(C(=O)C2CCN(C(=O)C3(C)CC3)CC2)C[C@@H]1c1ccc(Cl)c(Cl)c1 (racemic) [Example 98, rac-{(3R,4S)-4-(3,4-Dichloro-phenyl)-1-[1-(1-methyl-cyclopropanecarbonyl)-piperidine-4-carbonyl]-pyrrolidin-3-yl}-methyl-carbamic acid 3-hydroxy-3-methyl-butyl ester] gave a pKi of 7.32.
CN(C(=O)OCC1CCC(F)(F)CC1)[C@H]1CN(C(=O)C2CCN(C(=O)C3(C)CC3)CC2)C[C@@H]1c1ccc(Cl)c(Cl)c1 (racemic) [Example 99, rac {(3R,4S)-4-(3,4-Dichloro-phenyl)-1-[1-(1-methyl-cyclopropanecarbonyl)-piperidine-4-carbonyl]-pyrrolidin-3-yl}-methyl-carbamic acid 4,4-difluoro-cyclohexylmethyl ester] showed a pKi of 8.80.
Compound CN(C(=O)OC1CCC(F)(F)CC1)[C@H]1CN(C(=O)C2CCN(C(=O)C3(C)CC3)CC2)C[C@@H]1c1ccc(Cl)c(Cl)c1 (racemic) [Example 102, rac-{(3R,4S)-4-(3,4-Dichloro-phenyl)-1-[1-(1-methyl-cyclopropanecarbonyl)-piperidine-4-carbonyl]-pyrrolidin-3-yl}-methyl-carbamic acid 4,4-difluoro-cyclohexyl ester] has a pKi of 8.40.
CN(C(=O)OCC1CCC(F)(F)C1)[C@H]1CN(C(=O)C2CCN(C(=O)C3(C)CC3)CC2)C[C@@H]1c1ccc(Cl)c(Cl)c1 (mixture of isomers) [Example 111, rac-{(3R,4S)-4-(3,4-Dichloro-phenyl)-1-[1-(1-methyl-cyclopropanecarbonyl)-piperidine-4-carbonyl]-pyrrolidin-3-yl}-methyl-carbamic acid 3,3-difluoro-cyclopentylmethyl ester] gave a pKi of 8.36.
CN(C(=O)Oc1ccc(F)cc1)[C@@H]1CN(C(=O)C2CCN(c3ccc(C(=O)NC(C)(C)C)cn3)CC2)C[C@H]1c1ccc(Cl)cc1 (racemic) [Example 120, rac-[(3S,4R)-1-(5′-tert-Butylcarbamoyl-3,4,5,6-tetrahydro-2H-[1,2′]bipyridinyl-4-carbonyl)-4-(4-chloro-phenyl)-pyrrolidin-3-yl]-methyl-carbamic acid 4-fluoro-phenyl ester] was tested, and the pKi was 8.80.
CN(C(=O)O[C@H]1CC[C@H](C(F)(F)F)CC1)[C@@H]1CN(C(=O)C2CCN(c3ccc(C(=O)NC(C)(C)C)cn3)CC2)C[C@H]1c1ccc(Cl)cc1 (racemic) [Example 121, rac-[(3S,4R)-1-(5′-tert-Butylcarbamoyl-3,4,5,6-tetrahydro-2H-[1,2′]bipyridinyl-4-carbonyl)-4-(4-chloro-phenyl)-pyrrolidin-3-yl]-methyl-carbamic acid 4-trifluoromethyl-cyclohexyl ester] gave a pKi of 8.18.
Compound CN(C(=O)OCCCC(F)(F)F)[C@@H]1CN(C(=O)C2CCN(c3ccc(C(=O)NC(C)(C)C)cn3)CC2)C[C@H]1c1ccc(Cl)cc1 (racemic) [Example 124, rac-[(3S,4R)-1-(5′-tert-Butylcarbamoyl-3,4,5,6-tetrahydro-2H-[1,2′]bipyridinyl-4-carbonyl)-4-(4-chloro-phenyl)-pyrrolidin-3-yl]-methyl-carbamic acid 4,4,4-trifluoro-butyl ester] has a pKi of 7.40.
CN(C(=O)OCCC(F)(F)F)[C@H]1CN(C(=O)C2CCN(C(=O)C3(C)CC3)CC2)C[C@@H]1c1ccc(Cl)c(Cl)c1 (single isomer, unassigned) [Example 29] was tested, and the pKi was 7.83.
CN(C(=O)Oc1ccc(F)cc1)[C@H]1CN(C(=O)[C@H]2CC[C@H](O)CC2)C[C@@H]1c1ccc(Cl)c(Cl)c1 (stereo in doubt) [Example 45, [(3R,4S)-4-(3,4-Dichloro-phenyl)-1-(trans-4-hydroxy-cyclohexanecarbonyl)-pyrrolidin-3-yl]-methyl-carbamic acid 4-fluoro-phenyl ester] was tested, and the pKi was 8.49.
Work on CN(C(=O)Oc1ccc(F)cc1)[C@@H]1CN(C(=O)C2CCN(C(=O)C3(C)CC3)CC2)C[C@@H]1c1ccc(Cl)c(Cl)c1 (stereo in doubt) [Example 62, {(3S,4S)-4-(3,4-Dichloro-phenyl)-1-[1-(1-methyl-cyclopropanecarbonyl)-piperidine-4-carbonyl]-pyrrolidin-3-yl}-methyl-carbamic acid 4-fluoro-phenyl ester] yielded a pKi of 7.50.
CN(C(=O)OCCC(F)(F)F)[C@H]1CN(C(=O)C2CCN(C(=O)C3(C)CC3)CC2)C[C@@H]1c1ccc(Cl)c(Cl)c1 (stereo in doubt) [Example 86, {(3R,4S)-4-(3,4-dichloro-phenyl)-1-[1-(1-methyl-cyclopropanecarbonyl)-piperidine-4-carbonyl]-pyrrolidin-3-yl}-methyl-carbamic acid 3,3,3-trifluoro-propyl ester] was tested, and the pKi was 7.22.

Same assay, conditions: hNK-3 receptor affinity; membranes from HEK293 cells transiently expressing recombinant human NK3 receptor; [3H]SR142801; Cheng-Prussoff; read-out: Data Ki
CN(C(=O)OCC1(C)CC1)[C@H]1CN(C(=O)C2CCN(C(=O)C3(C)CC3)CC2)C[C@@H]1c1ccc(Cl)c(Cl)c1 (racemic) [Example 91, rac-{(3R,4S)-4-(3,4-Dichloro-phenyl)-1-[1-(1-methyl-cyclopropanecarbonyl)-piperidine-4-carbonyl]-pyrrolidin-3-yl}-methyl-carbamic acid 1-methyl-cyclopropylmethyl ester] showed a pKi of 8.36.
CN(C(=O)Nc1ccc(F)cc1)[C@H]1CN(C(=O)C2CCN(C(=O)C3(C)CC3)CC2)C[C@@H]1c1ccc(Cl)cc1 (racemic) [Example 96, rac-1-{(3R,4S)-4-(4-Chloro-phenyl)-1-[1-(1-methyl-cyclopropanecarbonyl)-piperidine-4-carbonyl]-pyrrolidin-3-yl}-3-(4-fluoro-phenyl)-1-methyl-urea] showed a pKi of 7.27.
CN(CCC1CC1)C(=O)N(C)[C@H]1CN(C(=O)C2CCN(C(=O)C3(C)CC3)CC2)C[C@@H]1c1ccc(Cl)c(Cl)c1 (racemic) [Example 97, rac-1-(2-Cyclopropyl-ethyl)-3-{(3R,4S)-4-(3,4-dichloro-phenyl)-1-[1-(1-methyl-cyclopropanecarbonyl)-piperidine-4-carbonyl]-pyrrolidin-3-yl}-1,3-dimethyl-urea] showed a pKi of 7.51.
CN(C(=O)OC1CCC(C(F)(F)F)CC1)[C@H]1CN(C(=O)C2CCN(C(=O)C3(C)CC3)CC2)C[C@@H]1c1ccc(Cl)c(Cl)c1 (mixture of isomers) [Example 103, rac-{(3R,4S)-4-(3,4-Dichloro-phenyl)-1-[1-(1-methyl-cyclopropanecarbonyl)-piperidine-4-carbonyl]-pyrrolidin-3-yl}-methyl-carbamic acid 4-trifluoromethyl-cyclohexyl ester] gave a pKi of 8.74.
CN(C(=O)OCCC1CC1)[C@H]1CN(C(=O)C2CCN(C(=O)C3(C)CC3)CC2)C[C@@H]1c1ccc(Cl)cc1 (stereo in doubt) [Example 54, rac-{(3R,4S)-4-(4-Chloro-phenyl)-1-[1-(1-methyl-cyclopropanecarbonyl)-piperidine-4-carbonyl]-pyrrolidin-3-yl}-methyl-carbamic acid 2-cyclopropyl-ethyl ester] showed a pKi of 7.58.
In the case of CN(C(=O)OCCC1CC1)[C@@H]1CN(C(=O)C2CCN(C(=O)C3(C)CC3)CC2)C[C@H]1c1ccc(Cl)cc1 (stereo in doubt) [Example 64, {(3S,4R)-4-(4-Chloro-phenyl)-1-[1-(1-methyl-cyclopropanecarbonyl)-piperidine-4-carbonyl]-pyrrolidin-3-yl}-methyl-carbamic acid 2-cyclopropyl-ethyl ester], the pKi was 7.82.
